Test results reported in patent US7183068B2, “Methods of manufacturing glucose measuring assemblies with hydrogels” (Animas Technologies, LLC, priority 1999, dated 2007).
Values joined by “and” are separate entries in the source; they are usually repeats but may differ in a detail not shown here. Equal entries are not always repeated.

Key:
[1] = Adsorption of Nipastat paraben components from hydrogel by mask layer, HPLC of gel extract; type: physicochemical; conditions: 48 Hours at 4° C.; for % Loss of Nipastat ® biocide from Gel: Gel + Mask versus Gel Control; for HPLC peak intensity of paraben extracted from hydrogel, Average: average of 5; for HPLC peak intensity of paraben extracted from hydrogel: individual samples 1-5
Experimental: (§1) Nipastat®-containing hydrogels were formulated with the appropriate buffer salts under standard conditions, from which samples were taken for analysis. […] The hydrogels were cut using a ¾ inch punch to generate the sample disks to assay. Each disk was added to 5 mL of acetonitrile/water (30% ACN, v/v) and the Nipastat® biocide was extracted for 1 hour while shaking on an orbital shaker at 100 rpm. The extract was then filtered through a 0.2 μm membrane prior to HPLC separation and UV detection at 254 nm.
(§2) Reverse phase HPLC chromatography was performed using a Waters 3.9 mm×15 cm Nova-Pak C-18 column (Milford, Mass.) operating at a flow rate of between about 1.0 to 2.0 mL/min. at 35° C. The eluent was monitored by UV at 254 nm using a Shimadzu SPD-10AU UV-Visible spectrometer (Kyoto, Japan). Samples 10 μL in volume were injected into the column equilibrated in 30% ACN in water, and the following 20-minute gradient program was performed: • 1. Initial time of injection: 30% ACN/70% water at a flow rate of 1 mL/min • 2. Linear Gradient from 30% ACN to 80% ACN for 9.0 minutes (1 mL/min) • 3. Linear Gradient from 80% ACN to 100% ACN for 0.5 minutes (1 mL/min) • 4. 100% ACN for 4.5 minutes (1 mL/min) • 5. Linear Gradient from 100% ACN to 30% ACN for 0.5 minutes at a flow rate of 2 mL/min • 6.30% ACN for 5.5 minutes at a flow rate of 1 mL/min
(§3) The HPLC profiles of the extracts were compared with that of a standard solution of known concentration comprising the p-hydroxybenzoate derivatives. The peak intensities of the experimental samples are compared to those of the standards to determine relative amounts of each extracted paraben.
(§4) Collection assemblies incorporating Nipastat® biocide-comprising hydrogels were assayed for retention of the biocide within the hydrogel. Samples of the hydrogel prior to and after incorporation into the collection assembly, as well as the components of the collection assembly in contact with the hydrogel, were prepared as described in Example 1.

[2] = Adsorption of Nipastat paraben components from hydrogel by gel retaining layer, HPLC of gel extract; type: physicochemical; conditions: 9 Days at 4° C.; for % Loss of Nipastat ® biocide from Gel: Gel + GRL versus Gel Control; for HPLC peak intensity of paraben extracted from hydrogel, Average: average of 5; for HPLC peak intensity of paraben extracted from hydrogel: individual samples 1-5
Experimental: as §1, §2, §3, §4

[3] = Loss of undecylenic acid from hydrogel, gel control, GC; type: physicochemical; conditions: Two Weeks at Room Temperature
Experimental: (§5) Collection assemblies incorporating sodium undecylenate-comprising hydrogels were assayed for retention of the biocide within the hydrogel. The presence of undecylenic acid in the hydrogel and assembly components was determined by gas chromatography (GC) using a Hewlett Packard (Avondale, Pa.) 5890 gas chromatogram equipped with an HP 3396A integrator. The hydrogels and collection assembly components were cut using a ¾ inch punch to generate the samples to assay. Each sample “disk” was added to 4 mL of 1M HCl, and the undecylenic acid was extracted for 2 hours while shaking on an orbital shaker at 150 rpm, followed by 10 minutes at 100 rpm. The sample disks were then extracted twice with 4 mL of ethyl acetate. Samples 1 μL in volume were injected into the GC and the results compared to that generated for a standard solution of undecylenic acid.

[4] = Adsorption of undecylenic acid from hydrogel into mask layer, GC; type: physicochemical; conditions: Two Weeks at Room Temperature
Experimental: as §5

[5] = Adsorption of undecylenic acid from hydrogel into gel retaining layer, GC; type: physicochemical; conditions: Two Weeks at Room Temperature
Experimental: as §5

[6] = Response of sensing electrode to glucose, acetaminophen and uric acid in presence of biocide (percent recovery); conditions: preconditioned 10 minutes at 0.77V, 50 minutes at 0.42V
Source text: Two biocides were compared with respect to the effects their presence (within the ionically conductive medium) had on signal generation at the sensing element under three conditions: in the presence of glucose, glucose plus acetaminophen, and glucose plus uric acid. The Nipastat® biocide was shown in the examples above to form a permeation selective barrier at the reactive face of the sensor element. The second biocide tested, undecylenic acid, was not expected to polymerize under the iontophoretic conditions used during the functionality test as described in the previous example. The measured responses of the sensor elements are presented in Table 7, normalized to a control “background” response for each sensor element. As described in Example 5, the sensor electrodes were assembled with the collection insert layer containing the appropriate ionically conductive material (control, Nipastat® biocide, or undecylenic acid biocide) to form the autosensor assemblies. The autosensor assemblies were preconditioned for 10 minutes at 0.77V, followed by 50 minutes at 0.42V, after which the glucose solution (200 μM) plus or minus the interferant species was deposited onto the ionically conductive material, and the response of the sensor element measured from this time forward.

[7] = test system: Aspergillus niger; experiment: Modified USP antimicrobial preservative effectiveness test of hydrogels; type: cell-based; conditions: Aspergillus niger inoculation, 28 day period
Experimental: (§6) Nipastat® biocide and undecylenic acid were compared with respect to the effects their presence (within the ionically conductive medium) had on microbial growth over time. A modified USP antimicrobial preservative effectiveness test was performed, using Aspergillus niger, Candida albicans, Eschericia coli, Pseudomonas aeruginosa and Staphylococcus aureus. Separate portions of the two hydrogels were inoculated with a low concentration of one of the listed microorganisms, and recovery of the microorganism was determined over a period of 28 days. For this assay, the microorganisms were cultured, harvested and diluted to yield working suspensions of 2.0×10^3 to 2.0×10^4 colony forming units (CFUs)/sample.

[8] = test system: Candida albicans; experiment: as above; type: cell-based; conditions: Candida albicans inoculation, 28 day period
Experimental: as §6

[9] = test system: Eschericia coli; experiment: as above; type: cell-based; conditions: Eschericia coli inoculation, 28 day period
Experimental: as §6

[10] = test system: Pseudomonas aeruginosa; experiment: as above; type: cell-based; conditions: Pseudomonas aeruginosa inoculation, 28 day period
Experimental: as §6

[11] = test system: Staphylococcus aureus; experiment: as above; type: cell-based; conditions: Staphylococcus aureus inoculation, 28 day period
Experimental: as §6

Compound | % Loss of Nipastat ® biocide from Gel [1] [%] | HPLC peak intensity of paraben extracted from hydrogel, Average ([1]; Gel + Mask) | HPLC peak intensity of paraben extracted from hydrogel ([1]; Gel + Mask) | HPLC peak intensity of paraben extracted from hydrogel, Average ([1]; Gel Control) | HPLC peak intensity of paraben extracted from hydrogel ([1]; Gel Control) | % Loss of Nipastat ® biocide from Gel [2] [%] | HPLC peak intensity of paraben extracted from hydrogel, Average ([2]; Gel + GRL) | HPLC peak intensity of paraben extracted from hydrogel ([2]; Gel + GRL) | HPLC peak intensity of paraben extracted from hydrogel, Average ([2]; Gel Control) | HPLC peak intensity of paraben extracted from hydrogel ([2]; Gel Control) | other results
CCOC(=O)c1ccc(O)cc1 [Ethyl, p-hydroxybenzoic acid ethyl ester] | 99.9 | 57 | 0 (4×) and 285 | 63573 | 43754 and 52495 and 93771 and 58684 and 69162 | 34.2 | 40848 | 23429 and 43116 and 38410 and 46214 and 53073 | 62118 | 58534 and 68190 and 70588 and 56529 and 56747 | –
COC(=O)c1ccc(O)cc1 [Methyl, p-hydroxybenzoic acid methyl ester] | 96.1 | 10075 | 5445 and 11776 and 13807 and 11268 and 8081 | 257019 | 199735 and 233495 and 282756 and 265561 and 303549 | 17.0 | 231960 | 147682 and 239356 and 231307 and 251620 and 289836 | 279309 | 261836 and 315315 and 313086 and 256304 and 250006 | –
CCCOC(=O)c1ccc(O)cc1 [Propyl, p-hydroxybenzoic acid propyl ester] | 99.8 | 50 | 0 (4×) and 252 | 24535 | 18744 and 22146 and 27621 and 25936 and 28226 | 58.5 | 10873 | 4958 and 11465 and 9664 and 15618 | 26218 | 24034 and 30121 and 30407 and 24349 and 22180 | –
C=CCCCCCCCCC(=O)O [undecylenic acid, 10-undecenoic acid] | – | – | – | – | – | – | – | – | – | – | % Loss for Gel Control, Average ([3]; average): 62.4%; % Loss for Gel Control ([3]; individual hydrogel samples): 64.9% and 68.1% and 75.2% and 76.2% and 37.2% and 52.8%; % Loss for Gel + Mask Layer, Average ([4]; average): 73.1%; % Loss for Gel + Mask Layer ([4]; individual hydrogel samples): 73.3% and 68.5% and 78.2% and 72.5%; % Loss for Gel + GRL, Average ([5]; average): 28.1%; % Loss for Gel + GRL ([5]; individual hydrogel samples): 37.0% and 28.4% and 22.2% and 24.7%; formation of a permeation selective barrier impeding acetominophen and uric acid signal generation [6]: does not; biocide activity within the hydrogel: microbial count [7]: effective at reducing the microbial count; effectiveness compared between the two biocides [7]: more effective than the Nipastat® biocide; biocide activity within the hydrogel: microbial count [8]: effective at reducing the microbial count; effectiveness compared between the two biocides [8]: equally effective; biocide activity within the hydrogel: microbial count [9]: effective at reducing the microbial count; effectiveness compared between the two biocides [9]: equally effective; biocide activity within the hydrogel: microbial count [10]: effective at reducing the microbial count; effectiveness compared between the two biocides [10]: more effective than the Nipastat® biocide; biocide activity within the hydrogel: microbial count [11]: effective at reducing the microbial count; effectiveness compared between the two biocides [11]: more effective than the Nipastat® biocide
p-hydroxybenzoic acid butyl esters | 99.9 | 87 | 0 (4×) and 436 | – | 50220 | – | – | – | – | – | –
